Drawing on patent publication US4820834A, “Benzodiazepine analogs” (priority 1987, dated 1989), this text covers IC50 for 21 compounds.

The target in assay [1] is T1, CCK receptor (brain, cerebral cortex) (Cavia porcellus, UniProt H0VZC5).
T1 construct: Cerebral cortex was dissected and used as a receptor source; from tissue; host or cells: guinea pig cerebral cortex membranes (male Hartley)
T1 sequence (H0VZC5 1-426): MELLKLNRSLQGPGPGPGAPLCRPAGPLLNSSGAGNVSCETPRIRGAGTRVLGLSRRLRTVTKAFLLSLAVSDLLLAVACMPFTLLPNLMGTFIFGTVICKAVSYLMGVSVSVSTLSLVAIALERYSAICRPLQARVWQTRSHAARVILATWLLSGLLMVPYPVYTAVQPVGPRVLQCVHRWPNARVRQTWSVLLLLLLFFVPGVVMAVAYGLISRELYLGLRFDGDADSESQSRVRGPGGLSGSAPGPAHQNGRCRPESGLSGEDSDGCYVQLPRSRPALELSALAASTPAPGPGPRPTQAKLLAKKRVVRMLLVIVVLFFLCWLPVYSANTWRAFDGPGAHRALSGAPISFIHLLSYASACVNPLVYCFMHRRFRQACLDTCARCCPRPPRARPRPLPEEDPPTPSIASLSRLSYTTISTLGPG
Kind of assay: biochemical. Type of assay: binding, Male Hartley guinea pigs. The following applies: guinea pig cerebral cortex, ^125 I-CCK-33, 25° C., 2 hours. Summed up: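 Binding of [radiolabeled] CCK-33 measured by gamma counting of centrifuged pellets after 2 h at 25°C. Membranes came from guinea pig brain cortex, suspended in 10 mM HEPES, 5 mM MgCl2, 1 mM EGTA, 0.25 mg/ml bacitracin, 0.4% BSA.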

The target in assay [2] is T2, Gastrin receptor (gastric glands) (Cavia porcellus, UniProt H0VZC5).
T2 construct: The washed guinea pig gastric glands prepared as above were resuspended; from tissue; host or cells: guinea pig gastric mucosal glands (male Hartley)
T2 sequence (H0VZC5 1-426): T1 sequence (H0VZC5 1-426)
Kind of assay: Gastrin Receptor Binding in Guinea Pig Gastric Glands. Also on record: species or system guinea pig (male Hartley). The settings on record: 25° C., 30 minutes.

Assay [3] addresses T3, CCK receptor (pancreas) (Rattus norvegicus, UniProt P30551).
T3 construct: The whole pancreas was dissected free of fat tissue and was homogenized; from tissue; host or cells: rat pancreas membranes (Sprague-Dawley)
T3 sequence (P30551 1-444): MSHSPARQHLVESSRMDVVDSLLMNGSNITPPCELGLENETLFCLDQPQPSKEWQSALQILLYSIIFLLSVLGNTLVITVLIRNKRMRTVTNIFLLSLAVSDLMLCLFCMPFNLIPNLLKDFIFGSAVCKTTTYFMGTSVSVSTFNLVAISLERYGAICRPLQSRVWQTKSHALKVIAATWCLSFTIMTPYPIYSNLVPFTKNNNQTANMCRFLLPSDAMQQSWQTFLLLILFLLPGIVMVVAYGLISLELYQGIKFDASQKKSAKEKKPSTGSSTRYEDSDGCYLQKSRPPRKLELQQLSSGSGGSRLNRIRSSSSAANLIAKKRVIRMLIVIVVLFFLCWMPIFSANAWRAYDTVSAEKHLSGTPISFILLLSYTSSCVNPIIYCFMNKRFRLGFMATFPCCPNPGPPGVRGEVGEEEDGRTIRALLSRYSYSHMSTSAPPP
In words: CCK Receptor Binding (Pancreas): inhibition of ^125 I-CCK-33 binding. The arrangement: species or system Male Sprague-Dawley rats. The following applies: rat pancreas membranes, ^125 I-CCK-33, 37° C., 30 minutes. Summed up: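 Bound ^125I-CCK-33 was counted in pellets after a 30 min, 37° C incubation followed by centrifugation. Membranes came from male Sprague-Dawley rat pancreas, assayed in Tris HCl pH 7.7 containing DTT, bacitracin, PMSF and o-phenanthroline. For Scatchard analysis, tracer was diluted with rising unlabelled CCK-33.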

Setting [4] is: read-out: IC50 ^125 I-CCK Brain.
Setting [5] is: ^125 I-gastrin, read-out: IC50 ^125 I-Gastrin Gastric Glands.
[6] abbreviates: IC50 ^125 I-Gastrin Gastric Glands.
Setting [7] is: read-out: IC50 ^125 I-CCK Pancreas.

One may read the IC50 as the point on the concentration scale where inhibition reaches its midpoint.

Like-named read-outs stand apart in the source and are kept apart here.

For `CCOC(=O)C(C)N1C(=O)C(NC(=O)OCc2ccccc2)N=C(c2ccccc2)c2ccccc21` (stereo not drawn) [Example 241, 2,3-Dihydro-alpha-methyl-2-oxo-5-phenyl-3-((phenylmethoxy)carbonyl)amino-1H-1,4-benzodiazepine-1-acetic acid ethyl ester], the IC50 in assay [1] (setting [4]) is 1400 nM; in assay [2] (setting [5]) it was 950 nM; in assay [3] (IC50 ^125 I-CCK Pancreas), 930 nM.
In the same order, the values of `CCOC(=O)C(C)N1C(=O)C(NC(=O)OCc2ccccc2)N=C(c2ccccc2)c2ccccc21` (stereo not drawn) [Example 242] are 2300 nM, 870 nM and 900 nM.
In the same order, the values of `CC(C(=O)O)N1C(=O)C(NC(=O)OCc2ccccc2)N=C(c2ccccc2)c2ccccc21` (stereo not drawn) [Example 243, 2,3-Dihydro-alpha-methyl-2-oxo-5-phenyl-3-((phenylmethoxy)carbonyl)amino-1H-1,4-benzodiazepine-1-acetic acid] are 2800 nM, 3600 nM and 680 nM.
The like results for `CCN(CC)C(=O)C(C)N1C(=O)C(NC(=O)OCc2ccccc2)N=C(c2ccccc2)c2ccccc21` (stereo not drawn) [Example 244, (1-(2-(Diethylamino)-1-methyl-2-oxoethyl)-2,3-dihydro-2-oxo-5-phenyl-1H-1,4-benzodiazepin-3-yl)-carbamic acid phenylmethyl ester] were, in that order, 740 nM, 500 nM and 950 nM.
Consider `CN1C(=O)C(NC(=O)Oc2ccc([N+](=O)[O-])cc2)N=C(c2ccccc2F)c2ccccc21` (stereo not drawn) [Example 245, (5-(2-Fluorophenyl)-2,3-dihydro-1-methyl-2-oxo-1H-1,4-benzodiazepin-3-yl)-carbamic acid-4-nitrophenyl ester], for which the results for the 50% inhibitory concentration (IC50) in assay [1] (IC50 ^125 I-CCK Brain), in assay [2] (setting [6]) and in assay [3] (IC50 ^125 I-CCK Pancreas) were 92000 nM, 12000 nM and 7200 nM, respectively.
Turning to `COc1cccc(NC(=O)NC2N=C(c3ccccc3F)c3ccccc3N(C)C2=O)c1` (stereo not drawn) [Example 246, N-(5-(2-Fluorophenyl)-2,3-dihydro-1-methyl-2-oxo-1H-1,4-benzodiazepin-3-yl)-N'-(3-methoxyphenyl)-urea], the IC50 in assay [1] (setting [4]) stood at 2 nM; in assay [2] (setting [5]), 2.4 nM; in assay [3] (IC50 ^125 I-CCK Pancreas) it was 1.9 nM.
Take `COc1cccc(NC(=O)NC2N=C(c3ccccc3)c3ccccc3N(C)C2=O)c1` (stereo not drawn) [Example 247, N-(2,3-Dihydro-1-methyl-2-oxo-5-phenyl-1H-1,4-benzodiazepin-3-yl)-N'-(3-methoxyphenyl)-urea]: the IC50 is 3 nM in assay [1] (IC50 ^125 I-CCK Brain), 1.6 nM in assay [2] (setting [5]) and 6.2 nM in assay [3] (setting [7]).
Consider `Cc1ccc(S(=O)(=O)NC(=O)NC2N=C(c3ccccc3)c3ccccc3N(C)C2=O)cc1` (stereo not drawn) [Example 248, N-(((2,3-Dihydro-1-methyl-2-oxo-5-phenyl-1H-1,4-benzodiazepin-3-yl)amino)carbonyl)-4-methylbenzenesulfonamide], for which the results for the 50% inhibitory concentration (IC50) in assay [1] (setting [4]), in assay [2] (setting [5]) and in assay [3] (IC50 ^125 I-CCK Pancreas) were 5300 nM, 2200 nM and 20000 nM, respectively.
For `CN1C(=O)C(NC(=O)Nc2ccccc2)N=C(c2ccccc2)c2ccccc21` (stereo not drawn) [Example 250, N-(2,3-Dihydro-1-methyl-2-oxo-5-phenyl-1H-1,4-benzodiazepin-3-yl)-N'-phenylurea], the IC50 in assay [1] (setting [4]) stood at 32 nM; in assay [2] (setting [5]), 9 nM; in assay [3] (setting [7]), 8.3 nM.
In the same order, the values of `CN1C(=O)C(NC(=O)NCc2ccccc2)N=C(c2ccccc2)c2ccccc21` (stereo not drawn) [Example 251, N-(2,3-Dihydro-1-methyl-2-oxo-5-phenyl-1H-1,4-benzodiazepin-3-yl)-N'-phenylmethylurea] are 860 nM, 420 nM and 490 nM.
As for `Cc1ccc(NC(=O)NC2N=C(c3ccccc3)c3ccccc3N(C)C2=O)cc1` (stereo not drawn) [Example 252, N-(2,3-Dihydro-1-methyl-2-oxo-5-phenyl-1H-1,4-benzodiazepin-3-yl)-N'-(4-methylphenyl)-urea], the IC50 in assay [1] (IC50 ^125 I-CCK Brain) was 6 nM; in assay [2] (setting [6]), 3.5 nM; in assay [3] (setting [7]), 57 nM.
Consider `COc1ccc(NC(=O)NC2N=C(c3ccccc3)c3ccccc3N(C)C2=O)cc1` (stereo not drawn) [Example 253, N-(2,3-Dihydro-1-methyl-2-oxo-5-phenyl-1H-1,4-benzodiazepin-3-yl)-N'-(4-methoxvphenyl)-urea], for which the results for the IC50 in assay [1] (IC50 ^125 I-CCK Brain), in assay [2] (setting [6]) and in assay [3] (IC50 ^125 I-CCK Pancreas) were 20 nM, 45 nM and 160 nM, respectively.
In the case of `CN1C(=O)C(NC(=O)Nc2ccccc2Cl)N=C(c2ccccc2)c2ccccc21` (stereo not drawn) [Example 254, N-(2-Chlorophenyl)-N'-(2,3-dihydro-1-methyl-2-oxo-5-phenyl-1H-1,4-benzodiazepin-3-yl)-urea], the IC50 was found to be 320 nM in assay [1] (setting [4]), 110 nM in assay [2] (setting [5]) and 0.9 nM in assay [3] (IC50 ^125 I-CCK Pancreas).
For the compound `CN1C(=O)C(NC(=O)Nc2ccc(Br)cc2)N=C(c2ccccc2)c2ccccc21` (stereo not drawn) [Example 255], the IC50 is 48 nM in assay [1] (IC50 ^125 I-CCK Brain), 32 nM in assay [2] (setting [6]) and 130 nM in assay [3] (setting [7]).
Consider `CN1C(=O)C(NC(=O)Nc2ccc([N+](=O)[O-])cc2)N=C(c2ccccc2)c2ccccc21` (stereo not drawn) [Example 256, N-(4-Nitrophenyl)-N'-(2,3-dihydro-1-methyl-2-oxo-5-phenyl-1H-1,4-benzodiazepin-3-yl)-urea], for which the IC50 in assay [1] (setting [4]) turned out to be 46 nM; in assay [2] (setting [5]) it was 9.8 nM; in assay [3] (setting [7]), 210 nM.
`CN1C(=O)C(NC(=O)Nc2ccc(Cl)c(Cl)c2)N=C(c2ccccc2)c2ccccc21` (stereo not drawn) [Example 257, N-(3,4-Dichlorophenyl)-N'-(2,3-dihydro-1-methyl-2-oxo-5-phenyl-1H-1,4-benzodiazepin-3-yl)-urea]: the IC50 in assay [1] (IC50 ^125 I-CCK Brain) turned out to be 67 nM; in assay [2] (setting [6]) it was 48 nM; in assay [3] (setting [7]), 26 nM.
In the same order, the values of `CN1C(=O)C(NC(=O)Nc2ccc(Cl)cc2Cl)N=C(c2ccccc2)c2ccccc21` (stereo not drawn) [Example 258, N-(2,4-Dichlorophenyl)-N'-(2,3-dihydro-1-methyl-2-oxo-5-phenyl-1H-1,4-benzodiazepin-3-yl)-urea] are 220 nM, 60 nM and 3 nM.
In the case of `CN1C(=O)C(NC(=O)Nc2ccc(F)cc2)N=C(c2ccccc2)c2ccccc21` (stereo not drawn) [Example 259, N-(2,3-Dihydro-1-methyl-2-oxo-5-phenyl-1H-1,4-benzodiazepin-3-yl)-N'-(4-fluorophenyl)-urea], the IC50 in assay [1] (setting [4]) stood at 66 nM; in assay [2] (setting [5]), 14 nM; in assay [3] (setting [7]), 46 nM.
As for `CN1C(=O)C(NC(=O)NC(C)(C)C)N=C(c2ccccc2)c2ccccc21` (stereo not drawn) [Example 260, N-(2,3-Dihydro-1-methyl-2-oxo-5-phenyl-1H-1,4-benzodiazepin-3-yl)-N'-(1,1-dimethylethyl)-urea], the IC50 in assay [1] (IC50 ^125 I-CCK Brain) was 38000 nM; in assay [2] (setting [6]) it was above 1000 nM; in assay [3] (setting [7]), 6800 nM.
Take `C[C@@H](NC(=O)NC1N=C(c2ccccc2)c2ccccc2N(C)C1=O)c1ccccc1` (stereo partly drawn) [Example 261, N-(2,3-Dihydro-1-methyl-2-oxo-5-phenyl-1H-1,4-benzodiazepin-3-yl)-N'-((R)1-phenylethyl)-urea]: the results for the IC50 in assay [1] (IC50 ^125 I-CCK Brain), in assay [2] (setting [5]) and in assay [3] (IC50 ^125 I-CCK Pancreas) were 11000 nM, 3200 nM and 430 nM, respectively.
In the case of `CN1C(=O)C(NC(=O)NC2CCCCC2)N=C(c2ccccc2)c2ccccc21` (stereo not drawn) [Example 262, N-Cyclohexyl-N'-(2,3-dihydro-1-methyl-2-oxo-5-phenyl-1H-1,4-benzodiazepin-3-yl)-urea], the figures for the concentration for half-maximal inhibition (IC50) in assay [1] (IC50 ^125 I-CCK Brain), in assay [2] (setting [6]) and in assay [3] (setting [7]) were 3000 nM, 390 nM and 2400 nM, respectively.
